Results: article PMC3016957, “Identification of Myotropic Neuropeptides from the Brain and Corpus Cardiacum-Corpus Allatum Complex of the Beetle, Zophobas atratus” (Journal of Insect Science, 2010)
Entries after “also recorded” stand apart in the source; their conditions may differ.

Experiments:
[1] = test system: semi-isolated Z. atratus heart; experiment: semi-isolated heart bioassay (video microscopy, continuously perfused heart); set-up: species or system Zophobas atratus; conditions: synthetic peptide 1×10^-9 M in saline, semi-isolated adult Z. atratus heart, n = 3–8 (Figure 8)
Protocol: All HPLC fractions were re-suspended in 100 µl of T. molitor saline (274 mM NaCl, 19 mM KCl, 9 mM CaCl2, 5 mM glucose, and 5 mM HEPES, pH 7.0), to a concentration of 1 brain or CC/CA equivalent, and assayed in vitro using a semi-isolated Z. atratus heart prepared according to Gäde and Rosinski ([1990]). In the bioassay, the video microscopy technique and the computer-based method of data acquisition and analysis were used to study the action of the fractions on continuously perfused heart preparations as described previously ([Marciniak et al. 2008]). The activities of tested fractions are presented as percentage changes in the control frequency of the heart contraction.
Synthetic peptides were dissolved in saline to yield a stock solution of 1 mM and were stored at -30 °C. Working dilutions (1×10^-9 M) were made from the stock solution in saline.

[2] = test system: heart of T. molitor; conditions: cited from earlier work
From the text: The most prominent ion signal (1257.8) in both the brain and CC/CA corresponds to leucomyosuppressin, a member of the FMRFamide family first characterized from the cockroach L. maderae ([Holman et al. 1986a]). […] These peptides are pleiotropic as their effects on insects include the modulation of muscle contractile activity ([Predel and Nachman 2001]; [Rosinski 1995]).

[3] = test system: heart muscles in beetles; conditions: synthetic peptide; ref Rosinski 1995; cited from earlier work
Protocol: All HPLC fractions were re-suspended in 100 µl of T. molitor saline (274 mM NaCl, 19 mM KCl, 9 mM CaCl2, 5 mM glucose, and 5 mM HEPES, pH 7.0), to a concentration of 1 brain or CC/CA equivalent, and assayed in vitro using a semi-isolated Z. atratus heart prepared according to Gäde and Rosinski ([1990]). In the bioassay, the video microscopy technique and the computer-based method of data acquisition and analysis were used to study the action of the fractions on continuously perfused heart preparations as described previously ([Marciniak et al. 2008]). The activities of tested fractions are pre ... || An AKH (Tenmo-AKH: pELNFSPNWa) had previously been identified from the CC of both T. molitor and Z. atratus (formerly Z. rugipes) ([Gäde and Rosinski 1990]), whereas two AKHs (pELNFSTDWa and pELNFTPNWa) are present in T. castaneum ([Audsley and Weaver, 2008]; [Gäde et al 2008]). From mass analysis of Z. atratus CC, only AKH was identified by the precursor ions 1009.7 and 1025.7, which represent the Na^+ and K^+ adducts of Temno-AKH, and its sequence was confirmed by MALDI-PSD. The protonated form of AKH is not usually detected using MALDI-TOF MS ([Audsley and Weaver, 2003]). Fraction 31 from t ...

[4] = test system: semi-isolated Z. atratus heart; conditions: ref Skonieczna and Rosinski 2004; cited from earlier work
From the text: The most prominent ion signal (1257.8) in both the brain and CC/CA corresponds to leucomyosuppressin, a member of the FMRFamide family first characterized from the cockroach L. maderae ([Holman et al. 1986a]).

In the case of “GRWGGFA [Trica-NVP-4 trunc, truncated NVP-like peptide-4 (GRWGGFA)]”, the “chronotropic effect on heart contractile activity (in words)” value (from here on “chronotropic effect”) [1] was “no effect on heart activity” and the “chronotropic effect” value ([1]; listed as NVP-4 trunc.) was “no effect on heart contractile activity”.
In the case of “PFCNAFTGCa [CCAP, crustacean cardioactive peptide]”, the “effect on contractions of the myocardium of T. molitor” value ([2]; ref Furuya et al. 1993) is listed as “stimulate contractions of the myocardium”.
For Proctolin, the “effect on beetle heart contractions” value [3] is listed as “stimulates contractions of the heart muscles”.
With SPPFAPRLa [Pyrokinin 2] the “chronotropic effect” value [1] was “minor positive chronotropic effect” and the “chronotropic effect” value ([1]; listed as PK 2) was “neither synthetic PK 2 nor the corresponding HPLC fraction (25) of CC/CA extract are active”.
For leucomyosuppressin [LMS], the “cardioinhibition in T. molitor” value ([2]; ref Skonieczna and Rosinski 2004) is listed as “dose-dependent reversible cardioinhibition”, the “inhibition of heart contractile activity (percentage change in the control frequency of heart contraction)” value ([1]; means ± SEM) is listed as 30% and the “cardioinhibition in Z. atratus” value [4] is listed as “dose-dependent reversible cardioinhibition”.
In the case of pELNFSPNWa [AKH], the “effect on beetle heart contractions” value [3] is listed as “positive chronotropic effects”.
For pETSDDYGHLRFa [sulfakinin 1], the “chronotropic effect” value [1] was “Neither sulfakinin 1 nor fraction 22 from the brain had any significant action; also recorded: no significant effects”.
In the case of pETSFTPRLa [Lem-PK], the “stimulatory activity on the heart of T. molitor” value ([2]; ref Rosinski 1995) is given as “very little stimulatory activity”.
